This is an account of results in patent US20230172232A1, “COMPOSITIONS AND METHODS USING AN AMINO ACID BLEND FOR PROVIDING A HEALTH BENEFIT IN AN ANIMAL” (Société des Produits Nestlé S.A., priority 2021, published 2023).

The test system of one test is HK2 cells. Briefly: Luminescent Cell Viability assay by measuring ATP (CellTiter-Glo 2.0). Particulars: for Cell Survival (Average Lum): Table 5, additional study, 48 h in medium, Control 763 951, W/O AA 565 539. The format is cell-based. How it is done: An amino acid blend study was performed using HK2 cell response to evaluate kidney health benefit. The amino acid blend composed glycine, methionine, cysteine, and glutamine. Protocol for Luminescent Cell Viability assay by measuring ATP, a key indicator of cell health is detailed hereafter.
For each experiment, a frozen stock of HK2 cells banked with less than passage 4 was thawed and expanded in normal growing medium in a humidified incubator at 37° C. in 5% CO2. HK2 cells were cultured for a maximum of 3 passages prior to cellular assays and were passaged upon reaching 70-80% confluence, approximately every 3 days.
2500 HK2 cells were seeded in 384 well plate in normal growing medium. 24 h after, cells were starved during 2 hours in HBSS buffer to remove all amino acids traces and then a new medium with specific formulation is added for 48 h incubation: Control medium with all amino acids, Medium without amino acids, Medium with 4 amino acids blend, Medium with all amino acids except 4 amino acids of interest, Medium with glycine only, Medium with methionine only, Medium with cysteine only, Medium with glutamine only, and Medium with cysteine+glutamine only.
Treatment is stopped by adding a CellTiter-Glo® 2.0 assay reagent from Promega to lyse the cells, after 20 min of incubation at room temperature with under slight shaking luminescence level was measured using a luminescent plate reader as an indicator of cell viability. Presence of ATP indicates the presence of metabolically active cells.
(In ATP-based viability assays light output follows the ATP content of the culture.)

In test [1] the test system is Complex I (CI) respiration of isolated mitochondria from skeletal muscle. Briefly: Acute oxidative stress (menadione) and mitochondrial high-resolution respirometry. Format: in vivo. Conditions: adult zebrafish, 3 μM menadione 2 h, then glycine 50, 200, 450 μM or glucose 500 μM and 5 mM in water 2 h at 28° C.; FIG. 3. How it is done:
Adult AB zebrafish of 4-6 months old were exposed in water to acute oxidative stress with 3 μM Menadione (Sigma-Aldrich) incubation for 2 h at 28° C. Following the stress, fish were divided into controls and treatment groups. Controls of the oxidative stress were then incubated in clean water for 2 h at 28° C. […] After BCA quantification of protein concentration, 150 μg of crude extract were used for high-resolution respirometry quantification. The Oxygraph-2k (O2k, OROBOROS Instruments) was used for measurements of respiration. Up to three O2k instruments ([…]) were used in parallel. […] Respiration of isolated mitochondria was determined using substrate-uncoupler-inhibitor titration (SUIT) protocols (Pesta and […], Methods Mol Biol. 2012; 810:25-58) with modifications. Pyruvate, glutammate and malate (5 mM, 10 mM, 2 mM, respectively) were used as substrate to induce Complex I (CI) respiration in presence of ADP (1 mM). […] CI respiration was calculated as the difference between total respiration (CI+CII) and the addition of CI inhibitor rotenone (0.5 μM); CII respiration was calculated as the difference between inhibited CI respiration and the addition of CII inhibitor malonic acid (5 mM). Total respiration (CI+CII, Tot resp) was assessed as the difference of the respiration in presence of all substrates and the total inhibition of CI and CII.

SMILES strings stand for the structures.

In the case of `N[C@@H](CS)C(=O)O` [cysteine], in the test with HK2 cells, the “Cell Survival (Average Lum)” value is on record as 388 041 Lum.
As to `NC(=O)CC[C@H](N)C(=O)O` [glutamine], the “Cell Survival (Average Lum)” value in the test with HK2 cells was 740 156 Lum. Further, the “protective effect on cell survival (in words)” value in the test on HK2 cells (Table 5 study) is reported as “performed similarly to the blend”.
Consider `NCC(=O)O` [glycine], for which, in test [1], the “Complex I dependent respiration (O2 consumption of isolated mitochondria)” value is given as “restores Complex I respiratory levels”. The “Cell Survival (Average Lum)” value in the test on HK2 cells was 620 224 Lum.
With `CC1=CC(=O)c2ccccc2C1=O` [menadione, Menadione, reference compound], the “Complex I dependent respiration (O2 consumption of isolated mitochondria)” value in test [1] is given as “decreasing Complex I dependent respiration”.
On to `CSCC[C@H](N)C(=O)O` [methionine], for which the “Cell Survival (Average Lum)” value with HK2 cells is on record as 611 869 Lum.
